The record followed here is patent US12054714B2, “Peptide docking vehicle for targeted nucleic acid delivery” (Sirnaomics, Inc., priority 2019, dated 2024).

In one data set the test system is ahsa1. Briefly: Dose-response screen in primary mouse hepatocytes, ahsa1-specific probe (standard control). In kind it is cell-based. The following applies: 72 hours. As to the method: (§1) Dose-response screens for GalNAc-conjugated siRNAs (mTTR1-PDoV3-GalNAc3, mTTR1-PDoV2-GalNAc3, mTTR2-GalNAc3 positive control, mTTR2-GalNAc3 positive control) were performed using primary mouse hepatocytes for target TTR. The cell density was 40000 cells/96 well. The concentration was from: highest at 1 μM in 5-fold dilutions to lowest at […]. Cells were transfected by direct incubation for 72 hours. The data was read out by bDNA assay. The data was analyzed by XLfit software. TTR signal normalized to gapdh, mean of quadruplicates, mock-treated cells set=1, Xlfit for calculation of IC50 values. The primary hepatocytes used were purchased from Primacyt, Germany (lot MH181219), derived from CD 1 mice, and treated with siRNA right after thawing.
(§2) The two siRNAs were both conjugated to trivalent GalNAc clusters at the 3′ end (mTTR2 siRNA sequence was a fully modified sequence and 4 more additional PS linkages modification on the oligonucleotides than mTTR1. (Nair, et al., J. Am. Chem. Soc. 136:16958-16961(2014). Aha1-GaNAc3 positive control was used as a standard control, targeted to the housekeeper ahsa1. This was used as both negative and positive control, hybridizing the cell lysates either to the screening target or to an ahsa1-specific probe. Table e1 lists the sequences of the 2 control siRNAs and the structure of the GalNAc cluster. Table e1. Control siRNA sequence and targets. (Images discloses SEQ ID NOS 36, 47-48, 59, and 47-48, respectively, in order of appearance)

Another data set concerns TTR. As to the kind of experiment: Dose-response screen of GalNAc-conjugated siRNAs in primary mouse hepatocytes, bDNA read-out. In kind it is cell-based. The following applies: direct incubation 72 hours. As to the method:
as §1, §2

A word on the IC50: it is the concentration that inhibits the measured activity by half. As a reminder, the IC80 is the point of the concentration-response curve where the effect stands at 80%.

{GalNAc3} = trivalent GalNAc cluster through an NHC6 amino-hexyl linker

With “aha1-GalNAc3 positive control: standard control siRNA targeted to the housekeeper ahsa1, conjugated to trivalent GalNAc cluster at 3′ end (SEQ ID NO: 41/42) (chain 1 UCUCGUGGCCUUAAUGAAA; chain 2 UUUCAUUAAGGCCACGAGAUU; chain 1: linkages s2 o16 (s phosphorothioate, o phosphodiester), 3' {GalNAc3}, sugars by position and methylation of C not given here; chain 2: linkages s2 o16 s2 (s phosphorothioate, o phosphodiester), sugars by position and methylation of C not given here; further chemistry not fully specified)”, in the data set with ahsa1, half-maximal inhibition (IC50) was put at 1.5 nM, the IC80 was found to be 5.9 nM and the “Max. KD” value amounted to 96%.

For “mTTR2-GalNAc3 positive control: fully modified siRNA against mouse TTR conjugated to trivalent GalNAc cluster at the 3′ end (SEQ ID NO: 39/40; Nair et al.) (chain 1 AACAGUGUUCUUGCUCUAUAA; chain 2 UUAUAGAGCAAGAACACUGUUUU; chain 1: linkages s2 o18 (s phosphorothioate, o phosphodiester), 3' {GalNAc3}, sugars by position and methylation of C not given here; chain 2: linkages s2 o18 s2 (s phosphorothioate, o phosphodiester), sugars by position and methylation of C not given here; fully modified, Nf 2'-fluoro, further chemistry not fully specified)”, in the data set with TTR (TTR signal normalized to gapdh), the IC80 came out at 0.3 nM. Also, the concentration for half-maximal inhibition (IC50) in the data set on TTR (TTR signal normalized to gapdh, Xlfit) is 0.1 nM. In addition, in the data set on TTR (highest concentration 1 μM), the “Max. KD” value stood at 96%.
